Assay [1] has as its target Delta-type opioid receptor (Mus musculus) (UniProt P32300). Description: Antagonistic activity against Opioid receptor delta 1 using [D-Ala2,D-Leu5]enkephalin in mouse vas deferens preparation. In kind it is functional.
The target of assay [2] is Kappa-type opioid receptor (Cavia porcellus) (UniProt P41144). Put plainly: Antagonistic activity against Opioid receptor kappa 1 using ethylketazocine in guinea pig ileum preparation. In kind it is functional, tissue-based.
Assay [3] has as its target Mu-type opioid receptor (Cavia porcellus) (UniProt P97266). Description: Antagonistic activity against Opioid receptor mu 1 using morphine in guinea pig ileum preparation. It counts as functional, tissue-based.
For assay [4] the target is unchanged. Conditions: Ileum.
Description: Antagonistic activity against Opioid receptor mu 1 receptor using morphine in guinea pig ileum preparation
Assay [5] concerns the target Kappa-type opioid receptor (Cavia porcellus) (UniProt P41144). Description: Antagonistic activity against Opioid receptor kappa 1 using ethylketazocine in guinea pig ileum preparation; No significant antagonism at 200 nM. It counts as functional, tissue-based.
Assay [6] has as its target Mu-type opioid receptor (Cavia porcellus) (UniProt P97266). Description: Antagonistic activity against Opioid receptor mu 1 using morphine in guinea pig ileum preparation; D means no significant antagonism at 200 nM. In kind it is functional, tissue-based.

Calls of active or inactive are those of the source. No cut-off for these calls is given here.

Chain of Kappa-type opioid receptor (Cavia porcellus) (P41144 whole entry): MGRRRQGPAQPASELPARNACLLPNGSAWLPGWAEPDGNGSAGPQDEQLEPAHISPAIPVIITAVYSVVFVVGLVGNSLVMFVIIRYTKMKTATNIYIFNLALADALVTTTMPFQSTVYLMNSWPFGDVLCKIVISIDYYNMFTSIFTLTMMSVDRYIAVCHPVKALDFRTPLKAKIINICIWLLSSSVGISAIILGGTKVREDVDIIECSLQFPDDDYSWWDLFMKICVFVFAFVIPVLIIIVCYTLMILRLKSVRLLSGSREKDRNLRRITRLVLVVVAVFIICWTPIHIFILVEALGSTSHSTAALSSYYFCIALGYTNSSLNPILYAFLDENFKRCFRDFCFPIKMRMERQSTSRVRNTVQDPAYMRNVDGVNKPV
Chain of Delta-type opioid receptor (Mus musculus) (P32300 whole entry): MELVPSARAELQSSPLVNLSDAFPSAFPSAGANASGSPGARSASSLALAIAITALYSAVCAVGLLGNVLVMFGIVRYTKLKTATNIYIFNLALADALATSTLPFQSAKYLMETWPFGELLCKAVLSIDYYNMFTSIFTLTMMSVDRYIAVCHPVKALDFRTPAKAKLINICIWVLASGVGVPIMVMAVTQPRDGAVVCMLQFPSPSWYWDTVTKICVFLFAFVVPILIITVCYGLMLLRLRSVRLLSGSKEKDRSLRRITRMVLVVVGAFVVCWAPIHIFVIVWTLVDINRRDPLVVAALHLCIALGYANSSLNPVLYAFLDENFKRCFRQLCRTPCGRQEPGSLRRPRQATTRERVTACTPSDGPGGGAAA
Chain of Mu-type opioid receptor (Cavia porcellus) (P97266 whole entry): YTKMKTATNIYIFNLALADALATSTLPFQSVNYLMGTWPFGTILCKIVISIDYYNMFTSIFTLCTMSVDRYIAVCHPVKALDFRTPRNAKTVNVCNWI

In the case of `Oc1ccc2c3c1O[C@H]1c4oc5ccccc5c4C[C@@]4(O)[C@@H](C2)N(CC2CC2)CC[C@]314`, the results for the Ke in assay [1], in assay [2] and in assay [3] were 1.1 nM, 48 nM and 27 nM, respectively.
For the compound `Oc1ccc2c3c1O[C@H]1c4[nH]c5ccc(F)cc5c4C[C@@]4(O)[C@@H](C2)N(CC2CC2)CC[C@]314`, the Ke in assay [1] was 2 nM; in assay [4] it was 61 nM; in assay [2], 46 nM.
In the case of `COc1ccc2[nH]c3c(c2c1)C[C@@]1(O)[C@H]2Cc4ccc(O)c5c4[C@@]1(CCN2CC1CC1)[C@H]3O5`, the Ke was 5.7 nM in assay [1], 13 nM in assay [2] and 63 nM in assay [3].
For `Oc1ccc2c3c1O[C@H]1c4[nH]c5ccccc5c4C[C@@]4(O)[C@@H](C2)N(CC2CC2)CC[C@]314`, the figures for the Ke in assay [1], in assay [4] and in assay [2] were 0.21 nM, 32 nM and 58 nM, respectively.
Compound `Cc1ccc2[nH]c3c(c2c1)C[C@@]1(O)[C@H]2Cc4ccc(O)c5c4[C@@]1(CCN2CC1CC1)[C@H]3O5` returned a Ke in assay [1] of 4.2 nM. For the same compound, the Ke entry in assay [5] and in assay [6] was “inactive” each time.

For the origin of these results see ChEMBL document CHEMBL1124243, “Application of the message-address concept in the design of highly potent and selective non-peptide delta opioid receptor antagonists” (J Med Chem, 1988).
